The results in this text go back to US11034675B2, “Solid forms of Selinexor and process for their preparation” (DR. REDDY'S LABORATORIES LIMITED, priority 2016, dated 2021).

Data set [1] in a line: stability of amorphous form under mechanical stress (grinding, milling). The class given is physicochemical. The note with it: mechanical stress such as grinding and milling. An excerpt:
(§1) The present application provides a stable amorphous form of Selinexor suitable for powder handling and downstream processes. […] In an embodiment, the present application provides a stable amorphous form of Selinexor with less than 5% of crystallinity, preferably with less than 1% crystallinity and more preferably devoid of crystallinity as per X-ray diffraction analysis.

Data set [2] is described as follows: stability of amorphous form under hygroscopic conditions (higher relative humidity). The format is physicochemical. The note with it: higher relative humidity conditions of more than 60% RH.
Text: as §1

Regarding `O=C(/C=C\n1cnc(-c2cc(C(F)(F)F)cc(C(F)(F)F)c2)n1)NNc1cnccn1` [Amorphous form of Selinexor, (Z)-3-(3-(3,5-bis(trifluoromethyl)phenyl)-IH—I,2,4-triazol-1-yl)-N′-(pyrazin-2yl) acrylohydrazide], the “stability under mechanical stress” value in data set [1] is reported as “highly stable”. In addition, in data set [2], the “stability under hygroscopic conditions” value is reported as “stable”.
